Test results published in patent publication US8633315B2, “Substituted hydroxyethyl amine compounds as beta-secretase modulators and methods of use” (Amgen Inc., priority 2007, dated 2014).

Columns and labels:
BACE1 = BACE1 (Homo sapiens, UniProt P56817); test: In vitro enzymatic BACE FRET (fluorescence resonance energy transfer) assay; assay type: biochemical; conditions: read-out: BACE 1 FRET assay
Outline: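 Cleavage of a quenched peptide FRET substrate (50 nM) in 0.05 M acetate pH 4.2, 10% DMSO, 100 uM genapol, 1 h incubation. Reaction stopped by Tris neutralization; fluorescence read at excitation 488 nm / […].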

[1] = Microsomal stability assay, human liver microsomes; assay type: in vitro ADME
Excerpt: (§1) Microsomal Stability Assay

[2] = Microsomal stability assay, rat liver microsomes; assay type: in vitro ADME
Excerpt: as §1

[3] = tested on: Cells stably expressing Amyloid Precursor Protein (APP); test: In vitro BACE cell-based assay (HEK cell assay): Aβ40 in conditioned medium by sandwich ELISA; conditions: Homo sapiens, HEK293
Outline: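 APP-stably-expressing cells were grown 24 h in DMEM/10% FBS, then treated for 24 h with 10-point doses starting at 100 μM or 10 μM, at 0.1% DMSO final. Aβ40 in conditioned medium was measured by sandwich ELISA (pAb40 capture, biotinylated 6E10 detection, europium time-resolved fluorescence); IC50 from percent inhibition.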

CYP3A4 (CYP3A) = CYP3A4 (CYP3A) (Homo sapiens, UniProt P08684); test: CYP3A inhibition assay (midazolam, pooled human liver microsomes); assay type: in vitro ADME; conditions: human, pooled human liver microsomes, pH 7.4, probe midazolam (printed as about […]); read-out: 3A4 IC50
CYP3A4 (CYP3A), sequence (P08684 2-503): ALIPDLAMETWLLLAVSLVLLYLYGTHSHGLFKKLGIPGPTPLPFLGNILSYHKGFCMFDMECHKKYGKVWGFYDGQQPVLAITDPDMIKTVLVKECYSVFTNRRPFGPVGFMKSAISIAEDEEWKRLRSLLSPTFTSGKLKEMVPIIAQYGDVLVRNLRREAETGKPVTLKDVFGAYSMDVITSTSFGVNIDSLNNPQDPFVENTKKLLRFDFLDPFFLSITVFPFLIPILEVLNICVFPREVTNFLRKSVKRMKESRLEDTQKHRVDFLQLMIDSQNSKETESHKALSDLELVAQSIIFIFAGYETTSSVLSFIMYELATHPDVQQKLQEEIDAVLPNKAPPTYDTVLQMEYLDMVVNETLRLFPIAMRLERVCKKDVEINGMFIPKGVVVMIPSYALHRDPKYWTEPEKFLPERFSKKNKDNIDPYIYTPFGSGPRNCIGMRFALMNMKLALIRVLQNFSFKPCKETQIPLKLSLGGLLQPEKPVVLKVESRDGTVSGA

BACE1, sequence (P56817 46-501, species assumed): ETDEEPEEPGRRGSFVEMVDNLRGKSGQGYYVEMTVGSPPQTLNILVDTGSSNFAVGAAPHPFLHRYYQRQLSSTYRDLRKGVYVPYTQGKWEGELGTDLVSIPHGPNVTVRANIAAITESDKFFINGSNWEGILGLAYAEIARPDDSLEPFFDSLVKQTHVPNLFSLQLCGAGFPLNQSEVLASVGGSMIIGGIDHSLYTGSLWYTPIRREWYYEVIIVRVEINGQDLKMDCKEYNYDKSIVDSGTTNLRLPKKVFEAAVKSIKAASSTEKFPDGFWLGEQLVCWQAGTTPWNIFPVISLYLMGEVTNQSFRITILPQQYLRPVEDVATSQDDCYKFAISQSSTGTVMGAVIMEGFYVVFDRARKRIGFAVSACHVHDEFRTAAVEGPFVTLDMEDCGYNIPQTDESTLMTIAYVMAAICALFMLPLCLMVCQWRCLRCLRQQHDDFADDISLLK

Row | Structure (SMILES) | IC50 (BACE1) [nM] | HLM [1] [µL/min/mg] | RLM [2] [µL/min/mg] | IC50 [3] [nM] | IC50 at 10 min (CYP3A4 (CYP3A)) [nM]
1 | C=CC[C@H](NC(=O)COC)[C@H](O)CN[C@H]1CC2(CCC2)Oc2c1cc(CC(C)(C)C)nc2Nc1cccnc1 [compound 240] | 268 | 551 | 152 | 345 | 500
2 | CCOC[C@H](NC(C)=O)[C@@H](O)CN[C@H]1CC2(CCC2)Oc2ncc(CC(C)(C)C)cc21 [compound 241] | 2720 | 84 | 45 | 93 | 3700
3 | C=CC[C@H](NC(=O)C1COC(c2cccnc2)O1)[C@H](O)CN[C@H]1CC2(CCC2)Oc2ncc(CC(C)(C)C)cc21 (stereo partly drawn) [compound 243, N-((1S)-1-((1R)-2-(((4′S)-6′-(2,2-dimethylpropyl)-3′,4′-dihydrospiro[cyclobutane-1,2′-pyrano[2,3-b]pyridin]-4′-yl)amino)-1-hydroxyethyl)-3-buten-1-yl)-2-(3-pyridinyl)-1,3-dioxolane-4-carboxamide] | 2160 | 601 | 173 | 982 | 300
4 | C=CC[C@H](NC(=O)COCC)[C@H](O)CN[C@H]1CC2(CCC2)Oc2ncc(CC(C)(C)C)cc21 [compound 244] | 2450 | 543 | 176 | 3170 | 1300
5 | C=CC[C@H](NC(=O)CCC(C)(C)C)[C@H](O)CN[C@H]1CC2(CCC2)Oc2ncc(CC(C)(C)C)cc21 [compound 245] | 9250 | 829 | 459 | 10000 | 300
6 | C=CC[C@H](NC(=O)[C@@H]1CN(Cc2nccs2)CCO1)[C@H](O)CN[C@H]1CC2(CCC2)Oc2ncc(CC(C)(C)C)cc21 [compound 246, (2S)-N-((1S)-1-((1R)-2-(((4′S)-6′-(2,2-dimethylpropyl)-3′,4′-dihydrospiro[cyclobutane-1,2′-pyrano[2,3-b]pyridin]-4′-yl)amino)-1-hydroxyethyl)-3-buten-1-yl)-4-(1,3-thiazol-2-ylmethyl)-2-morpholinecarboxamide] | 128 | 736 | 335 | 116 | 700
